From patent publication US12589087B2, “Enantiomer selective action on neurotransmission” (The Board of Trustees of the Leland Stanford Junior …, priority 2021, dated 2026)

Tests used:
GABAA α2β2γ2 = target: T1, GABAA α2β2γ2 (Homo sapiens, UniProt P18507+P47869+P47870); assay: FLIPR functional assay, HEK 293 cells (agonist/PAM/antagonist); type: cell-based; settings: top concentration 1 mM, read-out: EC50, functional agonist receptor assay
T1 construct: host or cells: HEK 293 (stably expressing)
T1 sequence (P47869 29-451): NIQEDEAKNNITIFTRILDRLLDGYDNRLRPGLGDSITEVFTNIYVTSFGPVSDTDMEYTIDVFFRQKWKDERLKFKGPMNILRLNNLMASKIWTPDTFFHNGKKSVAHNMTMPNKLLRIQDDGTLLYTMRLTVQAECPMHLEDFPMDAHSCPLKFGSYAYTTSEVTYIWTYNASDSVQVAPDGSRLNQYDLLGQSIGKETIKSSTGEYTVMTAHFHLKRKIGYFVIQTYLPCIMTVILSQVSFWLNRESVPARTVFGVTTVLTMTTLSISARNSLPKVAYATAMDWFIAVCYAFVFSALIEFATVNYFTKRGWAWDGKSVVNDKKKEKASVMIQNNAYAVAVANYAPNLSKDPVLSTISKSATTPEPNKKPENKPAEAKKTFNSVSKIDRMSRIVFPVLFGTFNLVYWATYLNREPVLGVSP
T1 sequence (P47870 25-512 limits assumed): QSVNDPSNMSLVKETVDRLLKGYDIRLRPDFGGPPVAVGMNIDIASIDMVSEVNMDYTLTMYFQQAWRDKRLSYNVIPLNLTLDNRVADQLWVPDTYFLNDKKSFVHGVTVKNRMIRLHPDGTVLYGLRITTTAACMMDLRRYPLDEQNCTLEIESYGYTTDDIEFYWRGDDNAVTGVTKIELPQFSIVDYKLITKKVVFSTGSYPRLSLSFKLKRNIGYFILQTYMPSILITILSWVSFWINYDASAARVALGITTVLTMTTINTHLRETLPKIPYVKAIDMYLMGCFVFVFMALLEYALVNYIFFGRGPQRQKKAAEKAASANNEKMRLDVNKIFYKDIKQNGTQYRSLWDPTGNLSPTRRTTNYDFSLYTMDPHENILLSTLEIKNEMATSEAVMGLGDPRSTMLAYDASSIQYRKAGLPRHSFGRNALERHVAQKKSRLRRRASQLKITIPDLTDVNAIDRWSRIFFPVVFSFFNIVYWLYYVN
T1 sequence (P18507 40-475): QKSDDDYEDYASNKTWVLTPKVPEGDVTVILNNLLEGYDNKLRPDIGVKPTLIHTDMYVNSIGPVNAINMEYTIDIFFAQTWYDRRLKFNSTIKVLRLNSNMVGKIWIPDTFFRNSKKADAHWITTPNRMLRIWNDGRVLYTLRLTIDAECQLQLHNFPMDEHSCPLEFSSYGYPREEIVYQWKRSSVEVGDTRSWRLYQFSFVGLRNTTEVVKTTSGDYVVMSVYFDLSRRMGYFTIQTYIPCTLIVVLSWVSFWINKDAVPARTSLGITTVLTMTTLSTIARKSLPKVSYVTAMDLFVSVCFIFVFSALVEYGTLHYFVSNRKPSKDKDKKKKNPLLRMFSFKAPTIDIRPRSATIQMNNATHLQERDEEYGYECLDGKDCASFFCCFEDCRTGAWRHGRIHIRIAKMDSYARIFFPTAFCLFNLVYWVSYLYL
Method: (§1) Functional assays of all GABAA, NMDA (GluN2A-GluN2D) and AMPA (GluA2) receptor subunits were performed by SB Drug Discovery as a part of their CNS discovery panel using FLIPR technology. Briefly, receptor-expressing HEK 293 cell lines were incubated in a red membrane potential dye in HEPES:HBSS pH 7.4 buffer and the fluorescence (λex: 488, λex: 510-570) was monitored over time as the test compounds and/or reference compounds were added to the solution. In agonist assay, only test compounds were added. In positive allosteric modulator assay, cells were preincubated with test compounds and then low concentration (approximately EC20) of an appropriate agonist was added. In antagonist assay, cells were preincubated with test compounds and then high concentration (approximately EC80) of an appropriate agonist was added. For GABAA assays, GABA was used as the agonist, picrotoxin was used as the reference antagonist and allopregnanolone was used as the reference positive allosteric modulator (PAM). For NMDA assays, a mixture of glutamate, glycine and CaCl2 was used as the agonist, MK801 was the reference antagonist and pregnenolone sulfate or GNE 9278 were used as reference PAMs. For AMPA assays, glutamate was used as the agonist, CNQX was the reference antagonist and cyclothiazide was used as the reference PAM. All compounds were tested at 7 concentration points in triplicate and EC50/IC50 was determined where applicable. Functional GABAB assay was performed by Eurofins Discovery (Cerep) using Ca^2+-dependent fluorimetry in RBL cells expressing human GABAB (B1/B2) receptor. All compounds were tested at a single concentration of 100 uM in triplicate.
(§2) All receptor assays were performed exactly as described in Example 1. Functional assays of all GABAA, NMDA (GluN2A-GluN2D) and AMPA (GluA2) receptor subunits were performed by SB Drug Discovery as a part of their CNS discovery panel using FLIPR technology. All compounds were tested at 7 concentrations in triplicate and EC50/IC50 was determined where applicable. Functional GABAB assay was performed by Eurofins Discovery (Cerep) using Ca^2+-dependent fluorimetry in RBL cells expressing human GABAB (B1/B2) receptor. All compounds were tested at a single concentration of 100 uM in triplicate. Nonspecific AMPA, kainate and NMDA binding assays were performed by Eurofins Discovery (Cerep) using rat cerebral cortex membranes and radiolabeled [^3H]AMPA, [^3H]kainic acid and [^3H]CGP 39653, respectively. All compounds were tested at a single concentration of 100 uM in triplicate. mGluR1, mGluR2, mGluR5 and GABAB binding assays were performed by Eurofins Discovery. All compounds were tested at a single concentration of 100 uM in triplicate.

GABAA α2β3γ2 = target: T2, GABAA α2β3γ2 (Homo sapiens, UniProt P18507+P28472+P47869); assay: as above; type: cell-based; settings: top concentration 1 mM, read-out: EC50, functional agonist receptor assay
T2 construct: host or cells: HEK 293 (stably expressing)
T2 sequence (P47869 29-451): as the sequence (P47869 29-451) above
T2 sequence (P28472 26-473): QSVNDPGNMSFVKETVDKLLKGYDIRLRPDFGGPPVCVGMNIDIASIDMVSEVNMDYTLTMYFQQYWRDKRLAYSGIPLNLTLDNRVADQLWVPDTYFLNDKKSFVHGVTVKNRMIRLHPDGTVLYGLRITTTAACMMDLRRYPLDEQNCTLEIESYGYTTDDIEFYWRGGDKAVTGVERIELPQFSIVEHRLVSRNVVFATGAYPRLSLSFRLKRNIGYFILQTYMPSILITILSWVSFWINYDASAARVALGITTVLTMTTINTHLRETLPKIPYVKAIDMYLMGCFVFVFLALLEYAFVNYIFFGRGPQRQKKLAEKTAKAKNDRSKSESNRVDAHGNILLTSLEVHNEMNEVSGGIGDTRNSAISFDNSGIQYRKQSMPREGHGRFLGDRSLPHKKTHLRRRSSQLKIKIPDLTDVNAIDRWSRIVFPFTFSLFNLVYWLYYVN
T2 sequence (P18507 40-475): as the sequence (P18507 40-475) above
Method: as §1, §2

GABAA α4β2γ2 = target: T3, GABAA α4β2γ2 (Homo sapiens, UniProt P18507+P47870+P48169); assay: as above; type: cell-based; settings: top concentration 1 mM, read-out: EC50, functional agonist receptor assay
T3 construct: host or cells: HEK 293 (stably expressing)
T3 sequence (P48169 36-554): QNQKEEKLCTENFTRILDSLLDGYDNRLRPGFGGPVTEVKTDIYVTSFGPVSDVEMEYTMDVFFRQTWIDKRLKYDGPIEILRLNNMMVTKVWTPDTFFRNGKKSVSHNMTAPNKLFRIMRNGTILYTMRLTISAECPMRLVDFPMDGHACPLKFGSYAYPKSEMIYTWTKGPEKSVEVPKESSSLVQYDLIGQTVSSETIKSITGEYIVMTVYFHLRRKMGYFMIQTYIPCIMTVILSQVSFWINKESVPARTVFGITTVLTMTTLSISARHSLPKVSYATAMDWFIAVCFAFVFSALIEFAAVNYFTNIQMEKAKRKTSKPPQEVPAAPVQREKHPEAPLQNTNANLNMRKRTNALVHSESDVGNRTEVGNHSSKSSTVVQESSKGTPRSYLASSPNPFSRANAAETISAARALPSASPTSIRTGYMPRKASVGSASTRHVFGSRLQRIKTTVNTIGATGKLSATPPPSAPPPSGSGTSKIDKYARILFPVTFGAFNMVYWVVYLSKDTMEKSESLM
T3 sequence (P47870 25-512 limits assumed): as the sequence (P47870 25-512 limits assumed) above
T3 sequence (P18507 40-475): as the sequence (P18507 40-475) above
Method: as §1, §2

GABAA α6β1γ2 = GABAA α6β1γ2 (Homo sapiens, UniProt P18505+Q16445); assay: as above; type: cell-based; settings: top concentration 1 mM, read-out: EC50, functional agonist receptor assay
Method: as §1, §2

GABAA α6β3γ2 = GABAA α6β3γ2 (Homo sapiens, UniProt P28472+Q16445); assay: as above; type: cell-based; settings: top concentration 1 mM, read-out: EC50, functional agonist receptor assay
Method: as §1, §2

GABAA α4β1γ2 = target: T4, GABAA α4β1γ2 (Homo sapiens, UniProt P18505+P18507+P48169); assay: as above; type: cell-based; settings: top concentration 1 mM, read-out: EC50, functional agonist receptor assay
T4 construct: host or cells: HEK 293 (stably expressing)
T4 sequence (P48169 36-554): as the sequence (P48169 36-554) above
T4 sequence (P18505 26-474): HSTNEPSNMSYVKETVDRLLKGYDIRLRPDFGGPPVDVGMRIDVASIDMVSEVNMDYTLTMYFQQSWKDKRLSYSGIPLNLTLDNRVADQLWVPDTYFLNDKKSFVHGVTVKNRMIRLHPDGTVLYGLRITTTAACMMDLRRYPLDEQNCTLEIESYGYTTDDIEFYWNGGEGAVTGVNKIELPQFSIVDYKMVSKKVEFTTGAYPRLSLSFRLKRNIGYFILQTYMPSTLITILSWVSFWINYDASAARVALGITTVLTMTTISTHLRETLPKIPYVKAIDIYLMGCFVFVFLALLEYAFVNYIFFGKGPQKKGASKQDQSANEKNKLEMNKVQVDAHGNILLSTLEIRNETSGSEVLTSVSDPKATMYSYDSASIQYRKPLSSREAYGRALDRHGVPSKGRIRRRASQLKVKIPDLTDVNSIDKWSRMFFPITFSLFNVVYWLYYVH
T4 sequence (P18507 40-475): as the sequence (P18507 40-475) above
Method: as §1, §2

GABAA α4β3γ2 = target: T5, GABAA α4β3γ2 (Homo sapiens, UniProt P18507+P28472+P48169); assay: as above; type: cell-based; settings: top concentration 1 mM, read-out: EC50, functional agonist receptor assay
T5 construct: host or cells: HEK 293 (stably expressing)
T5 sequence (P48169 36-554): as the sequence (P48169 36-554) above
T5 sequence (P28472 26-473): as the sequence (P28472 26-473) above
T5 sequence (P18507 40-475): as the sequence (P18507 40-475) above
Method: as §1, §2

GABAA α3β2γ2 = target: T6, GABAA α3β2γ2 (Homo sapiens, UniProt P18507+P34903+P47870); assay: as above; type: cell-based; settings: top concentration 1 mM, read-out: EC50, functional agonist receptor assay
T6 construct: host or cells: HEK 293 (stably expressing)
Method: as §1, §2

GABAB (B1a/B2) = target: T7, GABAB (B1a/B2) (Homo sapiens, UniProt Q9UBS5); assay: radioligand binding assay
T7 construct: host or cells: CHO-K1
T7 sequence (Q9UBS5 15-961 limits assumed): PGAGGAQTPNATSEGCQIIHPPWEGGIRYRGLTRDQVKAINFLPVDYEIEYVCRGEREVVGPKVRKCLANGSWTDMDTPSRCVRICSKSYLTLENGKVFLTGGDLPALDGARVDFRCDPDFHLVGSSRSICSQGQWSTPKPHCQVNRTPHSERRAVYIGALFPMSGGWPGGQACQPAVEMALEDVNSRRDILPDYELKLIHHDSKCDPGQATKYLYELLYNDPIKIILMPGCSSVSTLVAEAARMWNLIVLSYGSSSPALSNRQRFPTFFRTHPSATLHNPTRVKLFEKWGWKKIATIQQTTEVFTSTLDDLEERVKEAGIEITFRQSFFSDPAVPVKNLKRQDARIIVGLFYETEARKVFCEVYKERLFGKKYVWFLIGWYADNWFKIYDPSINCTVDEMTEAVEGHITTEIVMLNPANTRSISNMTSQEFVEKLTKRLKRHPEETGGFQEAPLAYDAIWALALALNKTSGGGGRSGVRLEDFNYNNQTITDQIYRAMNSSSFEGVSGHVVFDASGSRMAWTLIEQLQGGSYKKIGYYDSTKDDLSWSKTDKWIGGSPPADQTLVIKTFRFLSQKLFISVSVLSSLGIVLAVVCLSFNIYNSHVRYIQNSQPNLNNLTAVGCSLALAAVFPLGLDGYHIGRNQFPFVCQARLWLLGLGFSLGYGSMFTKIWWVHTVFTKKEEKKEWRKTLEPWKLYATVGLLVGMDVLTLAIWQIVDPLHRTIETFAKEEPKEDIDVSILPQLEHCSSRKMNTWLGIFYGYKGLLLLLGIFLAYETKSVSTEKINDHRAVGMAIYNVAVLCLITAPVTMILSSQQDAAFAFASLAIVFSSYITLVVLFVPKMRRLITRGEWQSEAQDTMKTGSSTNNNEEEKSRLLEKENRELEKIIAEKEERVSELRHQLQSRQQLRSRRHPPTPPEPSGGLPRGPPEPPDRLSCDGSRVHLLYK
T7 sequence (O75899 42-941 partner): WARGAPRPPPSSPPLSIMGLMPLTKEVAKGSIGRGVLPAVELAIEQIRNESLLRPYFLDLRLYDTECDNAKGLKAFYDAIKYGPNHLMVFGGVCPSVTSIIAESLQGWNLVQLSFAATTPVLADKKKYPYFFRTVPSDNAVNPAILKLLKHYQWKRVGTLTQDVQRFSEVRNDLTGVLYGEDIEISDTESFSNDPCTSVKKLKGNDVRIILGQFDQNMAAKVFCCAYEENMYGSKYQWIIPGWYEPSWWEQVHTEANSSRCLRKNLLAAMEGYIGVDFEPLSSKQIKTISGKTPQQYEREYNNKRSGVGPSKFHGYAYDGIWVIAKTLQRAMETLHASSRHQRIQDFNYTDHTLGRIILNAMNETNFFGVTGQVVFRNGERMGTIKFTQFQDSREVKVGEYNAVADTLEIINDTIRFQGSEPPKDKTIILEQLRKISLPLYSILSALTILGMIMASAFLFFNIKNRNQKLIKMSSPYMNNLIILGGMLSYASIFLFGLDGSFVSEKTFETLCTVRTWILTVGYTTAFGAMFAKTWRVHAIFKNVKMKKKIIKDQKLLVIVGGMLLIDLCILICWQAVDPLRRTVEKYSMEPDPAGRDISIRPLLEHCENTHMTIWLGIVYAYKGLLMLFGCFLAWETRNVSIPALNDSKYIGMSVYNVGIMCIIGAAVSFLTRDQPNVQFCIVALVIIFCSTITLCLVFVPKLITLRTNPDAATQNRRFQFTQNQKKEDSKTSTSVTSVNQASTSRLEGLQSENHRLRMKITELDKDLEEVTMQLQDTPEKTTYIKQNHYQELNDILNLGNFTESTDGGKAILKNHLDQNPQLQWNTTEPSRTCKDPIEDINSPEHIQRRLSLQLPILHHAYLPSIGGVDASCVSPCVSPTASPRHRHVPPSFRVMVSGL
Method: (§3) Nonspecific AMPA, kainate and NMDA binding assays were performed by Eurofins Discovery (Cerep) using rat cerebral cortex membranes and radiolabeled [^3H]AMPA, [^3H]kainic acid and [^3H]CGP 39653, respectively. All compounds were tested at a single concentration of 100 uM in triplicate. mGluR1, mGluR2, mGluR5 and GABAB binding assays were performed by Eurofins Discovery. mGluR1 assay was performed using rat cerebellum membranes and radiolabeled [^3H]quisqalic acid. mGluR2 assay was performed using recombinant Chem-1 cells and [^3H]LY341495. mGluR5 and GABAB binding assays were performed using recombinant CHO-K1 cells and […], respectively. All compounds were tested at a single concentration of 100 uM in triplicate.
as §2

GABAB (B1b/B2) = target: T8, GABAB (B1b/B2) (Homo sapiens, UniProt Q9UBS5); assay: radioligand binding assay
T8 construct: host or cells: CHO-K1
Method: as §3, §2

SMILES: C[C@@](N)(CCC(=O)O)C(=O)O [(R)-2MeGlu, (R)-2-methylglutamic acid]
- EC50 (GABAA α2β2γ2): 660 µM
- EC50 (GABAA α2β3γ2): 622 µM
- EC50 (GABAA α4β2γ2): 1250 µM
- EC50 (GABAA α6β1γ2): 772 µM
- EC50 (GABAA α6β3γ2): > 1000 µM
- EC50 (GABAA α4β1γ2): 870 µM
- EC50 (GABAA α4β3γ2): > 1000 µM
- EC50 (GABAA α3β2γ2): 1040 µM
- inhibition at 100 µM (GABAB (B1a/B2)): 18%
- inhibition at 100 µM (GABAB (B1b/B2)): 13%

SMILES: C[C@](N)(CCC(=O)O)C(=O)O [(S)-2MeGlu, (S)-2-methylglutamic acid]
- EC50 (GABAA α2β2γ2): 530 µM
- EC50 (GABAA α2β3γ2): 342 µM
- EC50 (GABAA α4β2γ2): 1020 µM
- EC50 (GABAA α6β1γ2): 280 µM
- EC50 (GABAA α6β3γ2): 998 µM
- EC50 (GABAA α4β1γ2): 704 µM
- EC50 (GABAA α4β3γ2): > 1000 µM
- EC50 (GABAA α3β2γ2): 961 µM
- inhibition at 100 µM (GABAB (B1a/B2)): 6%
- inhibition at 100 µM (GABAB (B1b/B2)): 14%
